Literature values in patent publication US20180036237A1, “OIL/SURFACTANT MIXTURES FOR SELF-EMULSIFICATION” (priority 2015, published 2018).

Conditions: single surfactant

For polyoxyethylene cetostearyl ether, the HLB is given as 13.5.
